In one test the target is T1, human DPP-IV (Homo sapiens, UniProt P27487).
T1 construct: purchased Sigma-Aldrich
The experiment in a line: DPP-IV inhibitory activity assay with Gly-Pro-AMC as the substrate. Format: biochemical. The settings on record: for IC50: peptides, Gly-Pro-AMC substrate. How it is done:
The DPP-IV inhibitory activity assay of the sample was performed using Gly-Pro-AMC as the substrate, as previously described. Briefly, 50 µL Gly-Pro-AMC (0.2 mM) was added to a 40 µL sample (dissolved in 100 mM HEPES buffer) and incubated for 10 min at 37 °C. The reaction was initiated by adding 10 µL DPP-IV enzyme solution (10 U/L). After being incubated for 60 min at 37 °C, the reaction was terminated by adding 100 µL sodium acetate buffer (1 M, pH 4.0). The fluorescence intensity of the mixture was measured with an excitation wavelength of 350 nm and an emission wavelength of 440 nm. The control group used the HEPES buffer instead of the sample. The blank group used the HEPES buffer instead of the sample and DPP-IV enzyme solution. The DPP-IV inhibitory activity of the sample was calculated as follows:(2) DPP-IV inhibitory activity (%)=(Ac− Ab) − (As−Ab)/(Ac−Ab)×100% where As, Ac, and Ab are the intensity of the fluorescence of the sample, control, and blank groups, respectively. The half-maximal inhibitory concentration (IC50) of the sample was calculated according to the DPP-IV inhibition activity against the concentrations of the sample. In addition, the type of inhibition of the sample was obtained from the Lineweaver–Burk equation and double reciprocal plots.

Test [1] deals with DPP-IV. The settings on record: cited from earlier work; for Inhibition mode on DPP-IV: similar results reported.
Test [2] relates to DPP-IV. Further details: method as in PMID 6427168. The settings on record: Gly-Pro-pNA as the substrate; read-out: DPP-IV inhibition IC50; cited from earlier work.
Where [3] appears, read: Ruditapes Philippinarum protein-derived peptides.
Setting [4] is: camel milk protein-derived peptides.
Setting [5] is: Chlorella Vulgaris protein-derived peptides.
Where [6] appears, read: wheat-derived peptides, read-out: DPP-IV inhibition IC50.

Read-outs that look alike come from different tables or passages of the source. Where a SMILES comes first, the peptide text is derived from it.

T1 sequence (P27487 whole entry): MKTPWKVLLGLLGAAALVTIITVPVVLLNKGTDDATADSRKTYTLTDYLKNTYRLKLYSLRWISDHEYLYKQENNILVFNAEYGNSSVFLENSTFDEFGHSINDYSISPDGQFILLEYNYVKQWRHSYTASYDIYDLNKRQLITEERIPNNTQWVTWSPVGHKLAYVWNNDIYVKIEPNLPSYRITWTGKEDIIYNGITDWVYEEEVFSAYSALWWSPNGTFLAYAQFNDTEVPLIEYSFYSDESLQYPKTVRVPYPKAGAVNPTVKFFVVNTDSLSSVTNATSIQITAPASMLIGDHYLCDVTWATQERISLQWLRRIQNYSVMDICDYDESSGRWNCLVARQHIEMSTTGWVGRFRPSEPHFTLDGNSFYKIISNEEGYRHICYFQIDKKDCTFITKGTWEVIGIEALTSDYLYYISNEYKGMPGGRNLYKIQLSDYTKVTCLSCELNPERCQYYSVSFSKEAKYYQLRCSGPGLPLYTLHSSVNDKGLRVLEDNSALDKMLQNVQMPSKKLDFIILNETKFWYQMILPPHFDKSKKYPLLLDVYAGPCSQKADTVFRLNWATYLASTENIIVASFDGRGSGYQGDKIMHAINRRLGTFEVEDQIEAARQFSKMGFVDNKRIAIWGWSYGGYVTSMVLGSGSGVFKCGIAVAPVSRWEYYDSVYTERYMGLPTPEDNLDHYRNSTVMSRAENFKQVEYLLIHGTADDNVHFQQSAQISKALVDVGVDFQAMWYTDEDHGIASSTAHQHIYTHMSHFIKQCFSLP

On human DPP-IV, `CC(C)[C@H](NC(=O)[C@H](C)NC(=O)[C@H](C)N)C(=O)N1CCC[C@H]1C(=O)N[C@@H](Cc1ccccc1)C(=O)O` [AAVPF] (H-AAVPF-OH) gave an inhibition at 25 µM of 5.42 ± 3.61%, an inhibition at 50 µM of 16.7 ± 3.38%, an inhibition at 100 µM of 28.9 ± 2.62% and an inhibition at 200 µM of 39.9 ± 2.79%. Also, on human DPP-IV, 400 µM produced 59.8 ± 2.84% inhibition and the IC50 was 282 ± 27.2 µM.
For the compound `CC[C@H](C)[C@H](N)C(=O)N1CCC[C@H]1C(=O)N[C@@H](CCC(N)=O)C(=O)N[C@@H](Cc1c[nH]cn1)C(=O)N[C@@H](Cc1ccc(O)cc1)C(=O)O` [IPQHY] (H-IPQHY-OH), at human DPP-IV, testing at 25 µM gave an inhibition of 49.4 ± 1.19%, the inhibition at 50 µM worked out at 66.9 ± 1.46%, 100 µM produced 82.67 ± 0.74% inhibition and the inhibition at 200 µM stood at 91 ± 1.2%. Further, at human DPP-IV, testing at 400 µM gave an inhibition of 95.84 ± 0.52% and inhibition was half-maximal at 25.7 ± 1.06 µM (IC50).
With `CC(C)C[C@H](N)C(=O)N1CCC[C@H]1C(=O)N[C@@H](CCC(N)=O)C(=O)N[C@@H](Cc1c[nH]cn1)C(=O)N[C@@H](Cc1ccc(O)cc1)C(=O)O` [LPQHY] (H-LPQHY-OH), on human DPP-IV, the inhibition at 25 µM is 21.3 ± 4.86%, testing at 50 µM gave an inhibition of 37.4 ± 4.24%, the inhibition at 100 µM came to 62.6 ± 1.21% and the inhibition at 200 µM turned out to be 80.4 ± 4.84%. The compound further gave an inhibition at 400 µM at human DPP-IV of 89.87 ± 0.41%.
As to `CC(C)C[C@H](N)C(=O)N1CCC[C@H]1C(=O)N[C@@H](CCC(N)=O)C(=O)N[C@@H](Cc1ccc(O)cc1)C(=O)N[C@@H](CCC(N)=O)C(=O)N[C@@H](C)C(=O)O` [LPQYQA] (H-LPQYQA-OH), on human DPP-IV, the inhibition at 200 µM was found to be 5.59 ± 3.1% and the inhibition at 400 µM came out at 29.8 ± 2.5%.
On to `CSCC[C@H](N)C(=O)N[C@@H](C)C(=O)NCC(=O)N[C@@H](CCC(N)=O)C(=O)N[C@H](C(=O)N[C@@H](Cc1ccccc1)C(=O)O)C(C)C` [MAGQVF] (H-MAGQVF-OH), for which, at human DPP-IV, at 25 µM the inhibition was 10.4 ± 4.35%, the inhibition at 50 µM was determined as 13 ± 2.11%, the inhibition at 100 µM stood at 26.7 ± 3.49% and the inhibition at 200 µM came out at 49.4 ± 1.9%. On human DPP-IV, this compound registered an inhibition at 400 µM of 67.5 ± 2.97% and an IC50 of 223 ± 6.16 µM.
At human DPP-IV, `O=C(N[C@@H](CS)C(=O)N1CCC[C@H]1C(=O)O)[C@H](Cc1c[nH]cn1)NC(=O)[C@@H]1CCCN1C(=O)[C@@H]1CCCN1` [PPHCP] (H-PPHCP-OH; N-terminus and C-terminus assumed) came in with an inhibition at 25 µM of 4.42 ± 3.95%, an inhibition at 50 µM of 29.9 ± 1.84%, an inhibition at 100 µM of 58.9 ± 1.1% and an inhibition at 200 µM of 81.35 ± 0.48%. For the same compound, at 400 µM the inhibition against human DPP-IV was 89.29 ± 0.45%.
At human DPP-IV, `CC(C)[C@H](N)C(=O)N[C@@H](C)C(=O)N[C@@H](CCC(=O)O)C(=O)N[C@H](C(=O)N1CCC[C@H]1C(=O)N[C@@H](Cc1ccccc1)C(=O)O)C(C)C` [VAEVPF] (H-VAEVPF-OH) had an inhibition at 25 µM of 33 ± 12.3%, an inhibition at 50 µM of 43.4 ± 2.27%, an inhibition at 100 µM of 58.2 ± 3.86% and an inhibition at 200 µM of 74.2 ± 2.32%. Moreover, on human DPP-IV, the inhibition at 400 µM worked out at 86.2 ± 0.96% and it took 65.3 ± 13.1 µM to reach half-maximal inhibition (IC50).
For the compound `CC(C)[C@H](N)C(=O)N[C@@H](C)C(=O)N[C@H](C(=O)N[C@H](C(=O)N1CCC[C@H]1C(=O)N[C@@H](Cc1ccccc1)C(=O)O)C(C)C)C(C)C` [VAVVPF] (H-VAVVPF-OH), at human DPP-IV, 25 µM produced 42.9 ± 2.31% inhibition, testing at 50 µM gave an inhibition of 61.5 ± 5.19%, the inhibition at 100 µM came out at 66 ± 4.07% and the inhibition at 200 µM turned out to be 78.9 ± 1.23%. On human DPP-IV, the inhibition at 400 µM was 87.99 ± 0.39% and the IC50 turned out to be 33.9 ± 4.83 µM.
At human DPP-IV, `CC(C)C[C@H](NC(=O)[C@@H]1CCCN1C(=O)[C@@H](N)C(C)C)C(=O)NCC(=O)NCC(=O)N[C@@H](Cc1ccccc1)C(=O)O` [VPLGGF] (H-VPLGGF-OH) gave an inhibition at 25 µM of 34 ± 0.76%, an inhibition at 50 µM of 55.9 ± 1.86%, an inhibition at 100 µM of 74.4 ± 0.88% and an inhibition at 200 µM of 86.7 ± 1.1%. Moreover, on human DPP-IV, at 400 µM the inhibition was 92.67 ± 0.36% and 40.2 ± 0.95 µM corresponded to half-maximal inhibition (IC50).
`CC(C)[C@H](N)C(=O)N1CCC[C@H]1C(=O)N[C@@H](CCC(N)=O)C(=O)N[C@@H](Cc1c[nH]cn1)C(=O)N[C@@H](Cc1ccc(O)cc1)C(=O)O` [VPQHY] (H-VPQHY-OH): on human DPP-IV, the inhibition at 25 µM came out at 40.5 ± 4.59%, at 50 µM the inhibition was 69.3 ± 4.66%, testing at 100 µM gave an inhibition of 78.8 ± 2.17% and the inhibition at 200 µM is 87.25 ± 0.25%. At human DPP-IV, this compound showed an inhibition at 400 µM of 94.3 ± 0.28% and an IC50 of 30.8 ± 1.93 µM.
For “FAGDDAPR [Ruditapes Philippinarum protein-derived peptide]”, the “Inhibition mode on DPP-IV” value with DPP-IV [1] (setting [3]) is “mixed-type inhibitors”.
“FAGDDAPRA [Ruditapes Philippinarum protein-derived peptide]”: in the test with DPP-IV [1] (setting [3]), the “Inhibition mode on DPP-IV” value was “mixed-type inhibitors”.
FLMESH: the “Inhibition mode on DPP-IV” value in the test on DPP-IV [1] (setting [3]) is “mixed-type inhibitors”.
For the compound “ILDKVGINY [camel milk protein-derived peptide]”, the “Inhibition mode on DPP-IV” value in the test with DPP-IV [1] (setting [4]) is “mixed-type inhibitors”.
Consider IPR, for which the “Inhibition mode on DPP-IV” value in the test on DPP-IV [1] (setting [5]) is “mixed-type inhibitors”.
Take LQAFEPLR: the IC50 in the test with DPP-IV [1] (peptide from tryptic hydrolysate of oat globulin, read-out: DPP-IV inhibitory activity IC50) was 104 µM.
Turning to MPF, in the test with DPP-IV [1] (setting [6]), the IC50 was roughly 500 µM.
On to SPVVPF, for which the “Inhibition mode on DPP-IV” value in the test on DPP-IV [1] (setting [4]) is listed as “mixed-type inhibitors”.
Take VAVPV: the IC50 in the test on DPP-IV [1] (setting [6]) is roughly 500 µM.
As to VPL, in the test with DPP-IV [2], the IC50 is 16.8 µM.
Consider VPW, for which, in the test with DPP-IV [1] (setting [5]), the “Inhibition mode on DPP-IV” value is listed as “mixed-type inhibitors”.

The values above are taken from publication PMC9141920, “Identification and Characterization of Dipeptidyl Peptidase-IV Inhibitory Peptides from Oat Proteins” (Foods, 2022).
